Key:
[1] = test system: exhaustion-related proteins PD1, LAG3 and TIM3 on the surface of CAR-T cells; assay: Flow cytometry of exhaustion-related proteins on CAR-T cells in co-culture; assay type: cell-based, mouse
Procedure: The experimental groups are as follows: 806-mCD28z-CAR-T group (or denoted as 806-28Z), olaparib pretreatment group, and olaparib combined treatment group;
The olaparib pretreatment group comprises: 806-mCD28z-CAR-T+1 μM olaparib pretreatment group (or denoted as 806-28Z+Olaparib 1 μM pretreatment), 806-mCD28z-CAR-T+5 μM olaparib pretreatment group (or denoted as 806-28Z+Olaparib 5 μM pretreatment);
Olaparib combined treatment group comprises: 806-mCD28z-CAR-T+1 μM olaparib combined treatment group (or denoted as 806-28Z+Olaparib 1 μM), 806-mCD28z-CAR-T+5 μM olaparib combined treatment group (or denoted as 806-28Z+Olaparib 5 μM).
(§1) Olaparib pretreatment group: different concentrations of olaparib (1 μM, 5 μM) are respectively added to a medium for culturing E0771-EGFRvIII or 4T1-EGFRvIII tumor cells, after culturing at 37° C. for 24 hours, the cells are treated with trypsin and resuspended in fresh medium. 806-mCD28z-CAR T cells in Example 1 are taken to co-incubate with E0771-EGFRVIII or 4T1-EGFRvIII cells pretreated with different concentrations of olaparib at a ratio of 1:1; 16 hours later, the proliferation of CAR-T cells and the expression levels of the T cell exhaustion-related proteins PD1, LAG3 and TIM3 on the surface of CAR-T cells are detected by flow cytometry.
as §1, with “combined treatment” for “pretreatment”, “E0771-EGFRvIII” for “E0771-EGFRVIII”, “1:1; after corresponding concentrations of olaparib (1 μM, 5 μM) are respectively added to the medium for” for “1:1;”, “hours,” for “hours later,”, “LAG-3” for “LAG3”

[2] = test system: E0771-EGFRvIII cells; assay: LDH cytotoxicity assay, CAR-T killing of olaparib-treated E0771-EGFRvIII cells; assay type: cell-based, mouse
Procedure: The experimental groups for incubating with cells that are positive for the antigen target comprises the following 4 groups: UTD group, 806-mCD28z-CAR-T group (or denoted as 806-28Z), olaparib pretreatment group, and olaparib combined treatment group;
the olaparib pretreatment group comprises: UTD+1 μM olaparib pretreatment group (or denoted as UTD+Olaparib 1 μM pretreatment), UTD+5 μM olaparib pretreatment group (or denoted as UTD+Olaparib 5 μM pretreatment), 806-mCD28z-CAR-T+1 μM olaparib pretreatment group (or denoted as 806-28Z+Olaparib 1 μM pretreatment). 806-mCD28z-CAR-T+5 μM olaparib pretreatment group (or denoted as 806-28Z+Olaparib 5 μM pretreatment); […]
Olaparib pretreatment group: different concentrations of olaparib (1 μM, 5 μM) are added to the medium for culturing E0771-EGFRVIII or 4T1-EGFRvIII tumor cells respectively, culturing at 37° C. for 24 h, and then the cells are treated with trypsin and resuspended in fresh medium. The untreated mouse T cells and 806-mCD28z-CAR T cells in Example 1 are respectively taken to incubate with E0771-EGFRvIII or 4T1-EGFRVIII cells pretreated with different concentrations of olaparib at a ratio of 1:3, 1:1, and 3:1; 16 hours later, the secretion of LDH in the supernatant is detected by Cytox 96 Non-Radioactive Cytotoxicity Assay, then calculating the killing toxicity of 806-mCD28z CAR T cells to tumor cells pretreated with different concentrations of olaparib. […] Cytox 96 Non-Radioactive Cytotoxicity Assay (Promaga, REF: G1782); at the same time, the secretions of cytokines Granzyme B, IFN-γ, and IL-2 in the supernatant are detected by ELISA kit (Lianke Biotech Co. Ltd. CAT: 18^.22), for specific experimental procedures, referring to instructions of MouseGranzyme B, IFN-γ, IL-2 ELISA kit from Lianke Biotech Co, Ltd. […]

[3] = olaparib combined treatment group

Q: For O=C(c1cc(Cc2n[nH]c(=O)c3ccccc23)ccc1F)N1CCN(C(=O)C2CC2)CC1 [olaparib], which “expression level of LAG3 on the surface of CAR-T cells” value [1, 3] is on record?
A: do not change significantly

Q: And the “expression level of PD1 on the surface of CAR-T cells” value [1, 3]?
A: do not change significantly

Q: What about the “expression level of TIM3 on the surface of CAR-T cells” value [1, 3] of the same compound?
A: do not change significantly

Q: And the “expression level of LAG3 on the surface of CAR-T cells” value ([1]; olaparib pretreatment group)?
A: do not change significantly

Q: What about the “expression level of PD1 on the surface of CAR-T cells” value ([1]; olaparib pretreatment group) of the same compound?
A: do not change significantly

Q: And the “expression level of TIM3 on the surface of CAR-T cells” value ([1]; olaparib pretreatment group)?
A: do not change significantly

Q: What about the “lethal effect on E0771-EGFRvIII cells compared with the CAR-T single treatment group” value ([2]; 5 μM olaparib combined treatment group) of the same compound?
A: higher synergistic lethal effect

Q: What about the “promotion of the killing effect of CAR-T cells on E0771-EGFRvIII cells” value ([2]; 5 μM olaparib pretreatment group, better than 5 μM combined treatment group) of the same compound?
A: most significant

Q: And the “killing effect of CAR-T cells on E0771-EGFRvIII cells” value ([2]; olaparib 1 μM or 5 μM, pretreatment or combined treatment, vs CAR-T alone, ratio 1:3, 1:1, 3:1, 16 hours, LDH)?
A: significantly improved

Reference: patent publication US20230158071A1, “TUMOR COMBINED IMMUNOTHERAPY” (CRAGE medical Co., Limited, priority 2018, published 2023)
